pIC50: −log10 of the molar value.
How the values were obtained:
MDA-MB-231 [1] = assay: Antiproliferative activity against human MDA-MB-231 cells after 72 hrs by MTT assay; details: MDA-MB-231, 72 h
MDA-MB-231 [2] = assay: Antimigratory activity in human MDA-MB-231 cells after 24 hrs by wound healing assay; details: MDA-MB-231, 24 h; for IC50: read-out: pIC50 (converted)
MCF7 = assay: cells; details: Homo sapiens, MCF7, 72 h
[3] = Cytotoxicity against human MCF10A cells at => IC50 of wound healing assay after 24 hrs by MTT assay; details: mcf-10a
[4] = Cytotoxicity against human MCF10A cells at => IC50 of antiproliferative assay after 24 hrs by MTT assay; details: mcf-10a

CC1=CC[C@H]2[C@H](CC[C@]2(C)O)C(C)(C)[C@@H]1CC[C@H]1[C@]2(C)CC[C@H](OC(=O)c3cccc([N+](=O)[O-])c3)C(C)(C)O[C@H]2CC[C@@]1(C)O gave a pIC50 (MDA-MB-231 [1]) of 4.46, a pIC50 (MDA-MB-231 [2]) of 5.23 and an IC50 (MDA-MB-231 [2]) of 5.9 µM. The pIC50 (MCF7) was 4.44, the Activity [3] was “Non-toxic” and the Activity [4] was “Non-toxic”.

Work on CC1=CC[C@H]2[C@H](CC[C@]2(C)O)C(C)(C)[C@@H]1CC[C@H]1[C@]2(C)CC[C@H](OC(=O)c3ccc([N+](=O)[O-])o3)C(C)(C)O[C@H]2CC[C@@]1(C)O yielded a pIC50 (MDA-MB-231 [1]) of 4.95, a pIC50 (MDA-MB-231 [2]) of 5.46 and an IC50 (MDA-MB-231 [2]) of 3.48 µM. For the same molecule, the pIC50 (MCF7) was 4.67, the Activity [3] was “Non-toxic” and the Activity [4] was “Non-toxic”.

CC1=CC[C@H]2[C@@H]1CC=C(C)[C@@H](CC[C@H]1[C@]3(C)CC[C@H](OC(=O)c4ccc(Cl)cc4)C(C)(C)O[C@H]3CC[C@@]1(C)O)C2(C)C gave a pIC50 (MDA-MB-231 [1]) of 4.90, a pIC50 (MDA-MB-231 [2]) of 5.23 and a pIC50 (MCF7) of 4.66.

Work on CC1=CC[C@H]2[C@@H]1CC=C(C)[C@@H](CCC1=C(C)CC[C@@H]3OC(C)(C)[C@@H](O)CC[C@@]13C)C2(C)C yielded a pIC50 (MDA-MB-231 [1]) of under 4.30, a pIC50 (MDA-MB-231 [2]) of 4.33 and an IC50 (MDA-MB-231 [2]) of 46.7 µM. The pIC50 (MCF7) was under 4.30.

In the case of CC1=CC[C@H]2[C@@H]1CC=C(C)[C@@H](CC[C@H]1[C@]3(C)CC[C@H](O)C(C)(C)O[C@H]3CC[C@@]1(C)O)C2(C)C, the pIC50 (MDA-MB-231 [1]) was under 4.30, the pIC50 (MDA-MB-231 [2]) was 4.45 and the IC50 (MDA-MB-231 [2]) was 35.3 µM. For the same molecule, the pIC50 (MCF7) was under 4.30.

For CC1=CC[C@H]2[C@H](CC[C@]2(C)O)C(C)(C)[C@@H]1CC[C@H]1[C@]2(C)CC[C@H](OC(=O)c3cccc(C(F)(F)F)c3)C(C)(C)O[C@H]2CC[C@@]1(C)O, the pIC50 (MDA-MB-231 [1]) was 4.44, the pIC50 (MDA-MB-231 [2]) was 5.21 and the IC50 (MDA-MB-231 [2]) was 6.1 µM. The pIC50 (MCF7) was 4.42, the Activity [3] was “Non-toxic” and the Activity [4] was “Non-toxic”.

In the case of CC1=CCC2C(CC[C@@]2(C)O)C(C)(C)C1CC[C@@H]1[C@@]2(C)CCC(=O)C(C)(C)O[C@@H]2CC[C@]1(C)O (stereo partly drawn) [SIPHOLENONE A], the pIC50 (MDA-MB-231 [1]) was under 4.30, the pIC50 (MDA-MB-231 [2]) was 4.55 and the IC50 (MDA-MB-231 [2]) was 28.1 µM. It also gave a pIC50 (MCF7) of under 4.30.

CC1=CC[C@H]2[C@H](CC[C@]2(C)O)C(C)(C)[C@@H]1CC[C@H]1[C@]2(C)CC[C@H](OC(=O)c3ccc(Cl)c(Cl)c3)C(C)(C)O[C@H]2CC[C@@]1(C)O showed a pIC50 (MDA-MB-231 [1]) of 5.09, a pIC50 (MDA-MB-231 [2]) of 5.89 and an IC50 (MDA-MB-231 [2]) of 1.3 µM. For the same molecule, the pIC50 (MCF7) was 4.92, the Activity [3] was “Non-toxic” and the Activity [4] was “Non-toxic”.

For CC1=CC[C@H]2[C@H](CC[C@]2(C)O)C(C)(C)[C@@H]1CC[C@H]1[C@]2(C)CC/C(=N/OC(=O)c3ccccc3)C(C)(C)O[C@H]2CC[C@@]1(C)O, the pIC50 (MDA-MB-231 [1]) was 4.56, the pIC50 (MDA-MB-231 [2]) was 4.55 and the IC50 (MDA-MB-231 [2]) was 28.5 µM. The pIC50 (MCF7) was 4.59.

CC1=C(CC[C@H]2[C@]3(C)CC[C@H](O)C(C)(C)O[C@H]3CC[C@@]2(C)O)[C@](C)(C/C=C/C(C)(C)O)[C@H](O)CC1 gave a pIC50 (MDA-MB-231 [1]) of under 4.30, a pIC50 (MDA-MB-231 [2]) of under 4.30 and an IC50 (MDA-MB-231 [2]) of 59 µM. For the same molecule, the pIC50 (MCF7) was 4.66.

In the case of CC1=CC[C@H]2[C@H](CC[C@]2(C)O)C(C)(C)[C@@H]1CC[C@H]1[C@]2(C)CC[C@H](OC(=O)c3ccc(C(F)(F)F)c(F)c3)C(C)(C)O[C@H]2CC[C@@]1(C)O, the pIC50 (MDA-MB-231 [1]) was 4.65, the pIC50 (MDA-MB-231 [2]) was 4.92 and the IC50 (MDA-MB-231 [2]) was 11.9 µM. The pIC50 (MCF7) was under 4.30, the Activity [3] was “Non-toxic” and the Activity [4] was “Non-toxic”.
